According to US4416877A, “Anti-atherosclerotic pharmaceutical compositions containing diphosphonate compounds” (priority 1979, dated 1983):
Like-named read-outs stand apart in the source and are kept apart here.

Columns and labels:
liver cholesterol = assay: Liver cholesterol clearing activity in cholesterol pre-fed rabbits; format: in vivo; conditions: 4 months; for Liver Cholesterol / Liver Cholesterol Free/Ester Ratio / Liver Phospholipids / Liver Total Lipids / Liver/Body Weight % Change: n = 5
[1] = Weight of fat tissue from rats treated for 90 days; format: in vivo, male and female rats
Experimental: Treating male and female rats with 40, 400 and 800 mg/kg of compound 16 per day for 90 days produced a sustained dose response augmentation in serum high density lipoprotein cholesterol (HDL-C or α-cholesterol) as high as 220% above controls at high dose level (Table VI).

renin [2] = assay: Renin activity in normal monkeys treated for 60 days; format: in vivo, Cynomolgus monkeys
Text: In order to further elucidate the mechanism of the previously observed hypotensive activity, the renin-angiotensin system was also monitored in these animals at the same time. […] However at this dosage concentration the inhibition appeared to be time dependent.

tissue cholesterol = assay: Effects in cholesterol fed rats (serum, liver and aorta lipids); format: in vivo; conditions: for change in vivo at 200 mg/kg/day: Rattus norvegicus
How it was run: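 Rats given a high fat–high cholesterol diet (4.5% cholesterol, 1.8% sodium cholate) for 10 days to 3 months, then normal food plus compound at 200 mg/kg/day for 10 days to 3 months. Liver and aorta lipids Folch-extracted; total lipids by sulfophosphovanillic reaction, cholesterol by Liebermann–Burchard or enzymatic method. Values expressed as % of control.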

renin [3] = assay: Renin activity in Cynomolgus monkeys fed simultaneously a high cholesterol diet; format: in vivo; conditions: for Renin Activity: n = 7
Experimental: (§1) | Dose: 25 mg d.i.d. per day

aorta cholesterol = assay: Aorta cholesterol clearing activity in cholesterol pre-fed rabbits; format: in vivo; conditions: 4 months; for Aortic Cholesterol Free/Ester Ratio / Aortic Cholesterol, Arch / Aortic Cholesterol, Thoracic / Aortic Cholesterol, Total / Aortic Phospholipids, Arch / Aortic Phospholipids, Thoracic / Aortic Phospholipids, Total: n = 5
lipoprotein cholesterol = assay: Lipoprotein changes in normal Cynomolgus monkeys treated during 60 days; format: in vivo; conditions: for Total Cholesterol / alpha Cholesterol / alpha/beta Cholesterol Ratio / beta Cholesterol: n = 7
Experimental: To further test the long term efficacity of compound 16, normal male and female Cynomolgus monkeys were treated during 60 days (Table XIII).
Dose: 25 mg/kg/day for 45 days 50 mg/kg/day for last 15 days

lipoproteins = assay: Effect on lipoproteins from 5 treated human patients; format: in vivo; conditions: for HDL2 Cholesterol / HDL2 Free/Total Cholesterol ratio / HDL3 Cholesterol / HDL3 Free/Total Cholesterol ratio / LDL Cholesterol / LDL Free/Total Cholesterol ratio / VLDL Cholesterol / VLDL Free/Total Cholesterol ratio: n = 5; for HDL2 Free/Total Cholesterol ratio, % change / HDL3 Cholesterol, % change / HDL3 Free/Total Cholesterol ratio, % change / VLDL Free/Total Cholesterol ratio, % change: vs pre-test
Experimental: Five human patients were treated over several days with either 5 mg/kg or 10 mg/kg of compound 16 (Table XV). […] It is generally recognized that an increase in free cholesterol ratio is indicative of an increased clearing or turnover of the lipoprotein cholesterol (Schwartz, C. C. Biochem. Biophys. Acta 663:143-162, 1981).

blood pressure = assay: Cardiovascular changes (blood pressure, heart rate) produced by one dose in a Cynomolgus monkey; format: in vivo; conditions: for Blood pressure / Heart Rate: 250 mg/kg p.o.
plasma lipoproteins = assay: Plasma lipoproteins in Cynomolgus monkeys fed simultaneously a high cholesterol diet during 60 days; format: in vivo; conditions: for HDL Chol. / α/β Chol. ratio: n = 7
Experimental: as §1

[4] = cholesterol fed rats (C.F), 200 mg/kg/day
[5] = 30 days on high cholesterol diet
[6] = 60 days on high cholesterol diet
[7] = simultaneous cholesterol-compound 16 treatment
[8] = 60 days, 50 mg/kg/day for last 15 days

## COP(=O)(OC)OC(c1ccc(Cl)cc1)P(=O)(OC)OC (stereo not drawn) [Compound 16, Dimethyl α(dimethoxyphosphinyl) p-chlorobenzyl phosphate]
Liver cholesterol; 100 mg/kg/day
  Liver Cholesterol: 3.1 ± 1.2 mg/g
  Liver Cholesterol Free/Ester Ratio: 2.23 ± 0.27
  Liver Phospholipids: 20.7 ± 2.7 mg/g
  Liver Total Lipids: 20.5 ± 3.4 mg/g
  Liver/Body Weight % Change: +8%
Liver cholesterol; 200 mg/kg/day
  Liver Cholesterol: 3.9 ± 1.4 mg/g
  Liver Cholesterol Free/Ester Ratio: 2.24 ± 0.46
  Liver Phospholipids: 26.3 ± 3.1 mg/g
  Liver Total Lipids: 25.9 ± 2.9 mg/g
  Liver/Body Weight % Change: +12%
Liver cholesterol; cholesterol pre-fed rabbits
  pre-established cholesterol deposits, liver: effectively decreased the pre-established cholesterol deposits
[1]; 40, 400 and 800 mg/kg
  decreasing the weight of fat tissue: impressive dose response effect in decreasing the weight of fat tissue
[1]; females, 40 mg/kg, n = 10
  Weight of fat tissue: 1.33 ± 0.66 g
[1]; females, 400 mg/kg, n = 5
  Weight of fat tissue: 0.39 ± 0.24 g
[1]; females, 800 mg/kg, n = 5
  Weight of fat tissue: 0.48 ± 0.14 g
[1]; males, 40 mg/kg, n = 8
  Weight of fat tissue: 2.49 ± 0.94 g
[1]; males, 400 mg/kg, n = 5
  Weight of fat tissue: 1.95 ± 0.52 g
[1]; males, 800 mg/kg, n = 5
  Weight of fat tissue: 0.97 ± 0.30 g
Renin [2]; controls 5.9±0.9
  Renin Activity: 0.3±0.1 ng AI /ml/h
Renin [2]; male and female monkeys
  inhibition of renin: highly significant and almost complete inhibition of renin
Tissue cholesterol; cholesterol fed rats (C.F), 200 mg/kg/day, read-out: Liver Chol. (% control values)
  change in vivo at 200 mg/kg/day: -57%
Tissue cholesterol; cholesterol fed rats (C.F), 200 mg/kg/day, read-out: Liver Total Lipids (% control values)
  change in vivo at 200 mg/kg/day: -32%
Tissue cholesterol; cholesterol fed rats
  liver total lipids and/or liver cholesterol: decreased significantly
Tissue cholesterol; [4]
  Aorta Chol. (% control values): -30%
  Aorta Total Lipids (% control values): -37%
  Serum Chol. α/β (% control values): +169%
Renin [3]; [5]
  Renin Activity: 0.8 ± 0.5 ng AI /ml/h
Renin [3]; [6]
  Renin Activity: 1.1 ± 0.2 ng AI /ml/h
Renin [3]; [7]
  renin inhibition: essentially completely inhibited
  renin inhibition, fold: 20 fold
Aorta cholesterol; 100 mg/kg/day
  Aortic Cholesterol Free/Ester Ratio: 0.5 ± 0.1
  Aortic Cholesterol, Arch: 17.9 ± 2.9 mg/g
  Aortic Cholesterol, Thoracic: 10.6 ± 2.8 mg/g
  Aortic Cholesterol, Total: 20.8 ± 6.5 mg/Aorta
  Aortic Phospholipids, Arch: 4.6 ± 1.4 mg/g
  Aortic Phospholipids, Thoracic: 4.5 ± 1.5 mg/g
  Aortic Phospholipids, Total: 6.5 ± 1.6 mg/Aorta
Aorta cholesterol; 200 mg/kg/day
  Aortic Cholesterol Free/Ester Ratio: 0.4 ± 0.1
  Aortic Cholesterol, Arch: 22.8 ± 3.4 mg/g
  Aortic Cholesterol, Thoracic: 11.0 ± 4.2 mg/g
  Aortic Cholesterol, Total: 18.3 ± 6.7 mg/Aorta
  Aortic Phospholipids, Arch: 5.9 ± 1.3 mg/g
  Aortic Phospholipids, Thoracic: 4.9 ± 1.9 mg/g
  Aortic Phospholipids, Total: 7.9 ± 1.8 mg/Aorta
Aorta cholesterol; cholesterol pre-fed rabbits
  pre-established cholesterol deposits, aorta: effectively decreased the pre-established cholesterol deposits
Lipoprotein cholesterol; 45 days, 25 mg/kg/day
  Total Cholesterol: 99 ± 8 mg/100 ml
  alpha Cholesterol: 54 ± 5 mg/100 ml
  alpha/beta Cholesterol Ratio: 1.17
  beta Cholesterol: 46 ± 4 mg/100 ml
Lipoprotein cholesterol; [8]
  Total Cholesterol: 85 ± 7 mg/100 ml
  alpha Cholesterol: 46 ± 4 mg/100 ml
  alpha/beta Cholesterol Ratio: 1.09
  beta Cholesterol: 41 ± 5 mg/100 ml
Lipoprotein cholesterol; normal monkeys
  HDL (α-cholesterol) and α/β ratio: augmentation in HDL (α-cholesterol) and a significant increase in α/β ratio
Lipoprotein cholesterol; normal monkeys, treated vs controls
  blood urea levels: significantly lower
lipoproteins; 5 mg/kg
  HDL2 Cholesterol: 0.82 ± 0.13 mmol/L
  HDL2 Free/Total Cholesterol ratio: 0.231 ± 0.027
  HDL3 Cholesterol: 0.72 ± 0.09 mmol/L
  HDL3 Free/Total Cholesterol ratio: 0.242 ± 0.018
  LDL Cholesterol: 3.05 ± 0.26 mmol/L
  LDL Free/Total Cholesterol ratio: 0.304 ± 0.005
  VLDL Cholesterol: 0.20 ± 0.03 mmol/L
  VLDL Free/Total Cholesterol ratio: 0.472 ± 0.019
  HDL2 Free/Total Cholesterol ratio, % change: +24%
  HDL3 Cholesterol, % change: +36%
  HDL3 Free/Total Cholesterol ratio, % change: +12%
  VLDL Free/Total Cholesterol ratio, % change: +14%
lipoproteins; 10 mg/kg
  HDL2 Cholesterol: 0.87 ± 0.07 mmol/L
  HDL2 Free/Total Cholesterol ratio: 0.221 ± 0.003
  HDL3 Cholesterol: 0.60 ± 0.02 mmol/L
  HDL3 Free/Total Cholesterol ratio: 0.285 ± 0.044
  LDL Cholesterol: 2.86 ± 0.23 mmol/L
  LDL Free/Total Cholesterol ratio: 0.303 ± 0.002
  VLDL Cholesterol: 0.26 ± 0.03 mmol/L
  VLDL Free/Total Cholesterol ratio: 0.519 ± 0.031
  HDL2 Free/Total Cholesterol ratio, % change: +19%
  HDL3 Cholesterol, % change: +13%
  HDL3 Free/Total Cholesterol ratio, % change: +32%
  VLDL Free/Total Cholesterol ratio, % change: +25%
lipoproteins; human patients, 5 or 10 mg/kg
  HDL3-cholesterol: significant increase
  free/total cholesterol ratio in isolated lipoprotein fractions: significantly elevated
Blood pressure; 250 mg/kg oral, six hours period
  decrease of blood pressure: at least 40%
Blood pressure; +1h
  Blood pressure: 65 mmHg
  Heart Rate: 195 beat/min.
Blood pressure; +2h
  Blood pressure: 70 mmHg
Blood pressure; +3h
  Blood pressure: 100 mmHg
  Heart Rate: 195 beat/min.
Blood pressure; +5h
  Blood pressure: 95 mmHg
  Heart Rate: 210 beat/min.
Blood pressure; +6h
  Blood pressure: 105 mmHg
  Heart Rate: 210 beat/min.
Plasma lipoproteins; [5]
  HDL Chol.: 49 ± 4 mg/100 ml
  α/β Chol. ratio: 0.22 ± 0.05
Plasma lipoproteins; [6]
  HDL Chol.: 39 ± 6 mg/100 ml
  α/β Chol. ratio: 0.22 ± 0.05
Plasma lipoproteins; simultaneous cholesterol feeding, 60 days
  HDL-C values and α/β ratios: increase HDL-C values and the α/β ratios
